These results are taken from US9745284B2, “2-pyridyloxy-4-ether orexin receptor antagonists” (MERCK SHARP & DOHME CORP., priority 2013, dated 2017).

One test addresses human orexin-2 receptor (Homo sapiens (Human), UniProt O43614). Put plainly: FLIPR Ca2+ flux assay, orexin-2 receptor. The test is classed as cell-based. As to conditions: CHO cells expressing human orexin-2 receptor; agonist 70 pM Ala-6,12 orexin-A; read-out: hOX2R FLIPR IC50. Here is the method:
The utility of the compounds in accordance with the present invention as orexin receptor OX1R and/or OX2R antagonists may be readily determined without undue experimentation by methodology well known in the art, including the “FLIPR Ca^2+ Flux Assay” (Okumura et al., Biochem. Biophys. Res. Comm. 280:976-981, 2001). In a typical experiment the OX1 and OX2 receptor antagonistic activity of the compounds of the present invention was determined in accordance with the following experimental method. For intracellular calcium measurements, Chinese hamster ovary (CHO) cells expressing the rat orexin-1 receptor or the human orexin-2 receptor, are grown in Iscove's modified DMEM containing 2 mM L-glutamine, […], 1% hypoxanthine-thymidine supplement, 100 U/ml penicillin, 100 μg/ml streptomycin and 10% heat-inactivated fetal calf serum (FCS). The cells are seeded at 20,000 cells/well into Becton-Dickinson black 384-well clear bottom sterile plates coated with poly-D-lysine. All reagents were from GIBCO-Invitrogen Corp. The seeded plates are incubated overnight at 37° C. and 5% CO2. Ala-6,12 human orexin-A as the agonist is prepared as a 1 mM stock solution in 1% bovine serum albumin (BSA) and diluted in assay buffer (HBSS containing 20 mM HEPES, 0.1% BSA and 2.5 mM probenecid, pH7.4) for use in the assay at a final concentration of 70 pM. Test compounds are prepared as 10 mM stock solution in DMSO, then diluted in 384-well plates, first in DMSO, then assay buffer. On the day of the assay, cells are washed 3 times with 100 μl assay buffer and then incubated for 60 min (37° C., 5% CO2) in 60 μl assay buffer containing 1 μM Fluo-4AM ester, 0.02% pluronic acid, and 1% BSA. The dye loading solution is then aspirated and cells are washed 3 times with 100 μl assay buffer. 30 μl of that same buffer is left in each well. Within the Fluorescent Imaging Plate Reader (FLIPR, Molecular Devices), test compounds are added to the plate in a volume of 25 μl, incubated for 5 min and finally 25 μl of agonist is added. Fluorescence is measured for each well at 1 second intervals for 5 minutes and the height of each fluorescence peak is compared to the height of the fluorescence peak induced by 70 pM Ala-6,12 orexin-A with buffer in place of antagonist. For each antagonist, IC50 value (the concentration of compound needed to inhibit 50% of the agonist response) is determined. Alternatively, compound potency can be assessed by a radioligand binding assay (described in Bergman et. al. Bioorg. Med. Chem. Lett. 2008, 18, 1425-1430) in which the inhibition constant (Ki) is determined in membranes prepared from CHO cells expressing either the OX1 or OX2 receptor. The intrinsic orexin receptor antagonist activity of a compound which may be used in the present invention may be determined by these assays.

The target in the next test is hOX1R (Homo sapiens, UniProt O43613). Put plainly: FLIPR Ca2+ flux assay, orexin-1 receptor. The test is classed as cell-based. As to conditions: CHO cells expressing orexin-1 receptor; agonist 70 pM Ala-6,12 orexin-A. (In general: A change in cytosolic calcium serves as a functional read-out for many receptors and channels.)

What is called IC50 is the concentration that inhibits the measured activity by half.

human orexin-2 receptor, sequence (O43614 whole entry): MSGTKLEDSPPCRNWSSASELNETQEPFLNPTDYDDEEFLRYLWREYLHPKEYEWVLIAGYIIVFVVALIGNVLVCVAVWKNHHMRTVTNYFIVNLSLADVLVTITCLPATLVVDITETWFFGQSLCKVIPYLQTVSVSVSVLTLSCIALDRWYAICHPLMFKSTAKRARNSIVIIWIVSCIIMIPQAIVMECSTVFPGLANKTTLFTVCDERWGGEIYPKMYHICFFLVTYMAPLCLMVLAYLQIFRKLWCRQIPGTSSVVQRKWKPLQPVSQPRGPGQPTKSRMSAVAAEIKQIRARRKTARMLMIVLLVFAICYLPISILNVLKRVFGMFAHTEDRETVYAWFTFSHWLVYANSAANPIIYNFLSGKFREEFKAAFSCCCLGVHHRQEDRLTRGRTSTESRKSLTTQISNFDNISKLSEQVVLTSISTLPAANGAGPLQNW

Take `Cc1noc(-c2ccccc2C(=O)N2C[C@H](Oc3cc(OCC(F)F)ccn3)CC[C@H]2C)n1` [Example 37, 4-(2,2-difluoroethoxy)-2-{[(3R,6R)-6-methyl-1-{[2-(3-methyl-1,2,4-oxadiazol-5-yl)phenyl]carbonyl}piperidin-3-yl]oxy}pyridine]: the IC50 at human orexin-2 receptor was determined as 52 nM; at hOX1R, 2720 nM.

Regarding `C[C@@H]1CC[C@@H](Oc2cc(OCC(F)F)ccn2)CN1C(=O)c1c(F)cccc1-n1nccn1` [Example 36, 4-(2,2-difluoroethoxy)-2-{[(3R,6R)-1-{[2-fluoro-6-(2H-1,2,3-triazol-2-yl)phenyl]carbonyl}-6-methylpiperidin-3-yl]oxy}pyridine], the 50% inhibitory concentration (IC50) at human orexin-2 receptor worked out at 56 nM; at hOX1R, 2970 nM.

Regarding `C[C@@H]1CC[C@@H](Oc2cc(OCC(F)(F)F)ccn2)CN1C(=O)c1ccsc1-n1nccn1` [Example 63, 2-{[(3R,6R)-6-methyl-1-{[2-(2H-1,2,3-triazol-2-yl)thiophen-3-yl]carbonyl}piperidin-3-yl]oxy}-4-(2,2,2-trifluoroethoxy) pyridine], the IC50 on human orexin-2 receptor turned out to be 55 nM; on hOX1R it was 8380 nM.

Take `C[C@@H]1CC[C@@H](Oc2cc(OCC(F)F)ccn2)CN1C(=O)c1ccsc1-c1ncccn1` [Example 64, ((2R,5R)-5-((4-(2,2-Difluoroethoxy)pyridin-2-yl)oxy)-2-methylpiperidin-1-yl)(2-(pyrimidin-2-yl)thiophen-3-yl)methanone]: the results for the IC50 on human orexin-2 receptor and on hOX1R were 36 nM and 5210 nM, respectively.

Regarding `C[C@@H]1CC[C@@H](Oc2cc(OCC(F)F)ccn2)CN1C(=O)c1ccccc1CS(C)(=O)=O` [Example 31, 4-(2,2-difluoroethoxy)-2-{[(3R,6R)-6-methyl-1-({2-[(methylsulfonyl)methyl]phenyl}carbonyl)piperidin-3-yl]oxy}pyridine], the IC50 on human orexin-2 receptor was 34 nM; at hOX1R, more than 10000 nM.

Regarding `COc1ccnc(O[C@@H]2CC[C@@H](C)N(C(=O)c3cccc(F)c3-n3nccn3)C2)c1` [Example 10, 2-{[(3R,6R)-1-{[3-fluoro-2-(2H-1,2,3-triazol-2-yl)phenyl]carbonyl}-6-methylpiperidin-3-yl]oxy}-4-methoxypyridine], the values for the IC50 at human orexin-2 receptor and at hOX1R were 14.7 nM and 576 nM, respectively.

On to `COc1ccnc(O[C@@H]2CC[C@@H](C)N(C(=O)c3ccccc3-n3nccn3)C2)c1C(C)=O` [Example 51, 1-(4-methoxy-2-{[(3R,6R)-6-methyl-1-{[2-(2H-1,2,3-triazol-2-yl)phenyl]carbonyl}piperidin-3-yl]oxy}pyridin-3-yl)ethanone], for which the values for the IC50 on human orexin-2 receptor and on hOX1R were 12.3 nM and 976 nM, respectively.

Regarding `Cc1nc(-c2ccccc2C(=O)N2C[C@H](Oc3cc(OCC(F)F)ccn3)CC[C@H]2C)no1` [Example 38, 4-(2,2-difluoroethoxy)-2-{[(3R,6R)-6-methyl-1-{[2-(5-methyl-1,2,4-oxadiazol-3-yl)phenyl]carbonyl}piperidin-3-yl]oxy}pyridine], the results for the IC50 on human orexin-2 receptor and on hOX1R were 56 nM and 2500 nM, respectively.

Consider `CC(C)Oc1ccnc(O[C@@H]2CC[C@@H](C)N(C(=O)c3cc(F)ccc3-n3nccn3)C2)c1` [Example 26, 2-{[(3R,6R)-1-{[5-fluoro-2-(2H-1,2,3-triazol-2-yl)phenyl]carbonyl}-6-methylpiperidin-3-yl]oxy}-4-(1-methylethoxy) pyridine], for which the IC50 at human orexin-2 receptor worked out at 37.2 nM; at hOX1R it was 2480 nM.

For the compound `C[C@@H]1CC[C@@H](Oc2cc(OCC(F)F)ccn2)CN1C(=O)c1ccccc1-c1ncccn1` [Example 45, 2-(2-{[(2R,5R)-5-{[4-(2,2-difluoroethoxy)pyridin-2-yl]oxy}-2-methylpiperidin-1-yl]carbonyl}phenyl) pyrimidine], the IC50 on human orexin-2 receptor is 33 nM; at hOX1R, 2940 nM.

Take `COc1ccc(C(=O)N2C[C@H](Oc3cc(OC(C)C)ccn3)CC[C@H]2C)c(-n2nccn2)c1` [Example 24, 2-{[(3R,6R)-1-{[4-methoxy-2-(2H-1,2,3-triazol-2-yl)phenyl]carbonyl}-6-methylpiperidin-3-yl]oxy}-4-(1-methylethoxy) pyridine]: the IC50 is 136 nM at human orexin-2 receptor and 10000 nM at hOX1R.
